Here are results for 1 substance from US20260286322A1, “PROTEIN TYROSINE P[…] DOMAIN PEPTIDE DIMER FOR NERVOUS SYSTEM REPAIR” (NervGen Pharma Corp., priority 2023, published 2026).

One data set concerns SCI rats. As to the kind of experiment: BBB sub-score (toe clearance, paw position, trunk stability, tail position) in SCI rats. It counts as in vivo, rat. As to the method:
Animals were prepared according to the methods described above in Example 3.
Lyophilized Compound 8 and Compound 4 were separately dissolved in saline and injected s.c. at a volume of 500 μl to animal once daily from day 1-day 49 post spinal cord injury.
The target dose concentration was 0.8 mg/ml. After reconstitutions, the solutions were aliquoted and kept at −20° C. until dosing.
12-13 rats were used in each of the following three groups: • 1) Control group: SCI+saline alone • 2) Testing group: SCI+Compound 4 in saline • 3) Testing group: SCI+Compound 8 in saline.
Spinal cord injury (SCI) was introduced to the animals and post-operative care was provided to the animals according to the methods described in Example 3.
The BBB sub-scores quantify the recovery of toe clearance, paw position, trunk stability and tail use independent of forelimb-hindlimb coordination. BBB sub-scores were calculated using the observations recorded in the BBB records sheets. During BBB testing, the predominant position of the hind paws (parallel vs rotated), toe clearance, trunk stability and tail position (up, down, middle) were evaluated for animals reaching a BBB score of 10 or higher. Animals scoring less than 10 in BBB scale were considered to have BBB sub-score of “0”.
As described above in Example 3, the upper points on the BBB scale (14-21) quantify fine motor movements associated with hind limb locomotor including toe clearance, predominant paw position, trunk stability, and tail position. These fine motor movements are only considered if animals display consistent coordination. A BBB sub-score was applied to quantify these improvements independent of coordination.
FIG. 8B depicts violin plots presenting distributions of the weekly average BBB sub-scores in the saline alone, Compound 4, and Compound 8 treatment cohorts of SCI rats. Each data point represents a weekly average BBB sub-score in the saline alone (control), Compound 4, and Compound 8 treatment cohorts as annotated on the X-axis. The numbers adjacent to the data points indicate the numbers of days post-SCI at which individual and treatment cohort weekly average BBB sub-scores were calculated. Statistical comparison of the treatment effects was performed using Friedman's test (repeated measures ANOVA for nonparametric values) with Dunn's correction for multiple comparisons and p-value of less than 0.05 defined as the criterion of statistical significance.

In data set [1] the test system is rat model of thoracic traumatic Spinal Cord Injury (SCI). As to the kind of experiment: Basso, Beattie and Bresnahan (BBB) open-field locomotor rating scale in SCI rats. It counts as in vivo. An excerpt: The goal of this study is to test the efficacy of a novel peptide dimer (Intracellular Sigma blocking peptide (ISP) dimer according to the present disclosure on behavioral changes in a rat model of thoracic traumatic Spinal Cord Injury (SCI).
(§1) Adult, female Lewis rats (~160 g on arrival) from Envigo were used as the subjects receiving the treatment in the study. The rats were assigned unique identification numbers (PGI ID and tail marks) and housed in ventilated cages. All rats were examined, handled, and weighed prior to initiation of the study to assure adequate health and suitability. During the course of the study, 12/12 light/dark cycles were maintained. The room temperature was maintained between […] and 23° C. with a relative humidity maintained around 50%. Chow and water were provided adlibitum for the duration of the study. The rats were randomly assigned across treatment groups. Body weights were taken twice a week during the study.
(§2) Lyophilized Compound 8 was dissolved in saline and injected s.c. at a volume of 500 μl to animal once daily from day 1-day 49 post spinal cord injury.
(§3) The dose concentration was 0.8 mg/ml, corresponding to 400 μg/rat. After reconstitutions, the solution was aliquoted and kept at −20° C. until dosing.
12-13 rats were used in each of the following two groups: • 1. Control group: SCI+Saline • 2. Testing group: SCI+Compound 8 in Saline.
Spinal cord injury (SCI) was introduced to the rats by surgery using the Infinite Horizon (IH) Impactor (200 kDyn force) described by Scheff et al. 2003. The surgery was performed with aseptic procedures in a designated area under deep anesthesia. Rats were anesthetized with isoflurane (4% for induction, 2% for maintenance), and O2 (300 cm^3/min) mixture. Hair was removed from the surgical site with clippers and the skin wase scrubbed with an antiseptic detergent. To maintain body temperature the animals were placed upon a homoeothermic blanket system. The T8 Vertebra of the rat was located externally, and an incision was made exposing the vertebral column from T6-T11. A laminectomy was performed using a surgical microscope to expose the dorsal spinal cord at the thoracic (T8) vertebral level. The vertebral column was stabilized by clamping the nearest rostral and caudal vertebral processes and the injury was produced using the IH impactor device at a 200 kDyn force. After each lesion the IH graphs and impact data were reviewed and recorded, rats presenting an impact force more than 10% higher or lower than expected and/or any abnormality on the force/displacement impact graphs were excluded from the study. Additionally, animals scoring more than 1 points in the Basso, Beattie and Bresnahan (BBB) score scale at 1 days after SCI were excluded for the study as well.
Locomotion changes were assessed using an open-field locomotor test (the Ohio State BBB Locomotor Rating Scale developed by Basso, et al. 1995). During each test, rats were observed moving around an empty wading pool for 4 minutes. Movements of joints in the hind limbs, weight support, and coordination between limbs were scored according to the BBB scale. This scale tracks the progressive recovery of hind-limb function following thoracic SCI. The scale can be divided into three parts reflecting the stages of recovery. […] BBB was assessed on days 1, 4 and 7 post injury and then weekly until completion of the study.
The BBB score scale obtained at day 1 after SCI was used to keep injury consistency. […] At Day 1 after SCI, only animals scoring either 0 (no observable hind-limb movement) or 1 (slight movement of one or two hind-limbs joins) in the BBB scale were enrolled in the study and allocated into treatment groups. The treatments groups were balanced using the BBB score obtained at day 1 after SCI.
Data was analyzed by analysis of variance (ANOVA) followed by post-hoc comparisons where appropriate. An effect was considered significant if p<0.05. […]

Data set [2] in a line: Body weights of SCI rats during treatment. Type of data set: in vivo, rat. The settings on record: SCI rats vs saline control, measured until the 13th week. As to the method: as §1, §2, §3
Body weights were taken twice a week for the first 7 weeks after injury and then weekly until endpoint. Health and survival of the animals was evaluated during bladder expressions, body weight and behavioral test, any health concerns were reported and discussed with a veterinarian if needed.

Setting [3] is: week 7 post-SCI, 13 rats in group.

“TAT-Cys-rodent PTPRS wedge domain homodimer [Compound 8]”: the “sustained trend of continued functional improvement in BBB sub-score” value with SCI rats (FIG. 8A) was “apparent”. In the data set with SCI rats (Friedman's test, Dunn's correction, p=0.0008 Compound 8, p>0.9999 Compound 4), the “effect on weekly average BBB sub-score vs saline alone” value was “statistically significant effect”. Besides, the “effect on weekly average BBB sub-score vs Compound 4” value in the data set on SCI rats (Friedman's test, Dunn's correction, p=0.0201) was “statistically significant effect”. Moreover, in the data set with SCI rats (after day 49), the “functional improvement (BBB sub-score achievers) after discontinuation of administration” value was “continued functional improvement”. The “onset of functional improvement in BBB sub-score” value in the data set on SCI rats (day post-SCI, 0.8 mg/ml, 500 μl s.c. once daily day 1-49) turned out to be 21 days. Besides, the “percentage of rats achieving BBB sub-score of 1 or better, compared with Compound 4 or saline alone groups” value in the data set with SCI rats (each time point post-SCI, e.g. day 28, 42, 63, 70, 77, 84) is “higher”. The “locomotor performance measured with weekly average BBB scores vs saline alone” value in data set [1] (RM ANOVA, Tukey, p<0.0001 for each compound) is “significant improvement”. Further, the “improving the BBB scores, compared with Compound 4” value in data set [1] (RM ANOVA, Tukey, p=0.0017) was “more efficacious”. The “recovery of movements of joints in the hind limbs, weight support, and coordination between limbs” value in data set [1] (SCI rats, vs saline) was “promotes the recovery”. The “share of rats achieving BBB scores of 10 or above” value in data set [1] (after 70 days post SCI, group (3)) is recorded as “More than half”. Moreover, the “number of rats having BBB scores of 6 to 7” value in data set [1] (day 7 post-SCI, 13 rats in group, 400 μg/rat s.c. once daily) amounted to 6 rats. The “percentage of rats that achieved a BBB score of 11” value in data set [1] (day 77 post-SCI) is “more than 20%”. For the same substance, the “percentage of rats that achieved a BBB score of 11” value in data set [1] (day 84 post-SCI) is listed as “about 50%”. For the same substance, the “maximum BBB score in the cohort” value in data set [1] (end of study) is 11. In addition, in data set [1] (setting [3]), the “number of rats with a BBB score of 10” value is given as 6 rats and the “number of rats with a BBB score of 11” value was 2 rats. The “rats with BBB scores of about 10 or 11” value in data set [1] (week 12 post-SCI) is listed as 8 out of 13. Further, the “effect on body weights” value in data set [2] is reported as “no adverse effects on body weights”.
